Experimental data published in patent US8796302B2 (priority 2004, dated 2014).

Key:
superoxide = experiment: Superoxide release (SOD-inhibitable cytochrome c reduction) after LPS; format: cell-based, rat
Description: The release of superoxide was determined by measuring the superoxide dismutase (SOD)-inhibitable reduction of cytochrome c. To measure the immediate release of superoxide from microglia-enriched or neuron-glia after stimulation, cultures grown in 96-well plates were switched to phenol red-free HBSS (50 μl/well). To each well was added 50 μl of HBSS containing vehicle or DM. The cultures were then incubated at about 37° C. for about 30 min followed by 50 μl of ferricytochrome c (100 μM) in HBSS, with and without 600 U/ml SOD, 50 μl of vehicle or LPS in HBSS. The absorbance at 550 nm was read with a SpectraMax Plus microplate spectrophotometer (Molecular Devices, Sunnyvale, Calif.).
This example tests whether or not post-treatment with DM is still neuroprotective in LPS-induced neurotoxicity. Neuron-glia co-cultures as prepared in Example 1 were first treated with LPS (20 ng/ml) for twelve hours, and then LPS was removed by removing the media from the cultures and washing twice with PBS. Different concentrations of DM (10^−5, 10^−10, and 10^−14 M) were then added to the cultures and incubation was continued for another 6 or 7 days. The DA uptake and the superoxide production were measured as in Example 1 and 5. Results are expressed as a percentage of the control cultures and are the mean±S.E.M of three to six experiments with triplicates in each experiment. ##, P<0.01 compared with control culture; *, P<0.05 compared with the LPS-treated culture.
Primary enriched-microglia cultures were prepared as in Example 1. […] The intracellular ROS concentrations and superoxide amounts were measured as in Example 5. The data are expressed as the percent of the control cultures and are the mean±SEM of three experiments performed in triplicate. *P<0.05, **P<0.01, compared to control.

TNFα = experiment: Serum and liver TNFα (ELISA) in LPS/GalN endotoxic shock; format: in vivo, mouse
Description: Blood was collected from the eye while the mice were anesthetized, and then perfused with saline. Perfused liver samples were collected and frozen at −70° C. The blood samples were stored at 4° C. overnight and then centrifuged at 1500×g at 4° C. for 15 min. Serum was collected and stored at −70° C. for ALT, and TNFα ELISA assays. The frozen liver samples were homogenized in 10 mg/ml cold lysis buffer (20 mM Tris, 0.25 M sucrose, 2 mM EDTA, 10 mM EGTA, 1% Triton X-100 and protein cocktail inhibitor), and then centrifuged at 35,000×g for 40 min. The supernatant was then collected for protein assay using BCA Protein Assay Reagent Kit (Prod#23227, PIERCE), and ELISA for TNFα.
The levels of TNFα in the serum and liver were determined as in Example 1.
TNFα, an important factor that plays an important role in sepsis, was studied as a mechanism of the protective effect of DM in LPS/GalN-challenge mice. DM (12.5 mg/kg, […].) was administered to mice, followed by LPS/GalN challenge 30 min later. Serum and liver TNFα level was assessed using ELISA at the indicated time points.

[1] = DM 12.5 mg/kg 30 min before LPS/GalN, 1.5 and 2 hours

## COc1ccc2c(c1)[C@@]13CCCC[C@H]1[C@@H](C2)N(C)CC3 [DM, d-3-methoxy-N-methylmorphinan]
superoxide; DM 10^−5 M and 10^−14 M pretreatment
  LPS-induced increase in the release of superoxide: significantly decreased
superoxide; DM 10^−5 and 10^−14 M post-treatment, 24 h after LPS
  LPS-induced increase in superoxide production, post-treatment: significantly inhibited LPS-induced increase in superoxide production
superoxide; DM 10^−10 M pretreatment
  LPS-induced increase in the release of superoxide: no significant reduction
superoxide; DM 10^−10 M, pre- or post-treatment
  production of superoxide: neither pre-treatment nor post-treatment with DM at 10^−10 M significantly affected the production of superoxide
TNFα; [1]
  liver TNFα level: significantly decreased TNFα level
  serum TNFα level: significantly decreased TNFα level
TNFα; DM 30 min post LPS/GalN (data not shown)
  TNFα level: suppression of TNFα level was also found
